{"source": "patent US20260248134A1", "about": "“A METHOD FOR CONTROLLING WEEDS” (UPL MAURITIUS LIMITED, priority 2023, published 2026)", "assay_type_in_all_cases": "in vivo", "key": {"Ipomoea hederifolia": {"system": "Ipomoea hederifolia", "assay": "Control of Ipomoea hederifolia weed by asulam alone, with adjuvant, with additional herbicide (Example 1)", "details": "4500 g a.i/ha", "protocol": "The effect of application of asulam alone, asulam along with an adjuvant, and asulam along with an additional herbicide was observed on the growth of Ipomoea hederifolia weed at 42, 49, 56 and 63 DAA (days after application). The percentage (%) control of weeds was evaluated to assess the efficacy of the compositions and the same has been disclosed in Table 1. Untreated control was also compared, wherein no herbicidal composition was applied and thus, no control of weeds was observed."}, "Avena strigose [1]": {"system": "Avena strigose", "assay": "Control of Avena strigose weed by asulam alone, with adjuvant, with additional herbicide (Example 3)", "details": "4500 g a.i/ha", "protocol": "The effect of application of asulam alone, asulam along with an adjuvant, and asulam along with an additional herbicide was observed on the growth of Avena strigose weed at 42, 49, 56 and 63 DAA (days after application). The percentage (%) control of weeds was evaluated to assess the efficacy of the compositions and the same has been disclosed in Table 3. Untreated control was also compared, wherein no herbicidal composition was applied and thus, no control of weeds was observed."}, "Raphanus raphanistrum": {"system": "Raphanus raphanistrum", "assay": "Control of Raphanus raphanistrum weed at different application rates (Example 7)", "excerpt": "The effect of application of asulam was observed on the growth of Raphanus raphanistrum weed at 14, 21 and 28 DAA (days after application) at different application rates. The percentage (%) control of weeds has been evaluated and disclosed in Table 7."}, "Avena strigose [2]": {"system": "Avena strigose", "assay": "Control of Avena strigose weed at different application rates (Example 8)", "excerpt": "The effect of application of asulam was observed on the growth of Avena strigose weed at 28, 35 and 49 DAA (days after application) at different application rates. The percentage (%) control of weeds has been evaluated and disclosed in Table 8."}}}
{"smiles": "COC(=O)NS(=O)(=O)c1ccc(N)cc1", "note": "[Asulam, asulam]", "values": [{"measurement": "Control of Ipomoea hederifolia", "setting": "Ipomoea hederifolia; 42 DAA", "result": 13.8, "unit": "%"}, {"measurement": "Control of Ipomoea hederifolia", "setting": "Ipomoea hederifolia; 49 DAA", "result": 11.3, "unit": "%"}, {"measurement": "Control of Ipomoea hederifolia", "setting": "Ipomoea hederifolia; 56 DAA", "result": 8.8, "unit": "%"}, {"measurement": "Control of Avena strigose", "setting": "Avena strigose [1]; 42 DAA", "result": 47.5, "unit": "%"}, {"measurement": "Control of Avena strigose", "setting": "Avena strigose [1]; 49 DAA", "result": 43.8, "unit": "%"}, {"measurement": "Control of Avena strigose", "setting": "Avena strigose [1]; 56 DAA", "result": 37.5, "unit": "%"}, {"measurement": "Control of Raphanus raphanistrum", "setting": "Raphanus raphanistrum; 1800 g a.i/ha, 14 DAA", "result": 61, "unit": "%"}, {"measurement": "Control of Raphanus raphanistrum", "setting": "Raphanus raphanistrum; 1800 g a.i/ha, 21 DAA", "result": 69, "unit": "%"}, {"measurement": "Control of Raphanus raphanistrum", "setting": "Raphanus raphanistrum; 1800 g a.i/ha, 28 DAA", "result": 82, "unit": "%"}, {"measurement": "Control of Raphanus raphanistrum", "setting": "Raphanus raphanistrum; 2250 g a.i/ha, 14 DAA", "result": 63, "unit": "%"}, {"measurement": "Control of Raphanus raphanistrum", "setting": "Raphanus raphanistrum; 2250 g a.i/ha, 21 DAA", "result": 73, "unit": "%"}, {"measurement": "Control of Raphanus raphanistrum", "setting": "Raphanus raphanistrum; 2250 g a.i/ha, 28 DAA", "result": 84, "unit": "%"}, {"measurement": "Control of Raphanus raphanistrum", "setting": "Raphanus raphanistrum; 2500 g a.i/ha, 14 DAA", "result": 66, "unit": "%"}, {"measurement": "Control of Raphanus raphanistrum", "setting": "Raphanus raphanistrum; 2500 g a.i/ha, 21 DAA", "result": 77, "unit": "%"}, {"measurement": "Control of Raphanus raphanistrum", "setting": "Raphanus raphanistrum; 2500 g a.i/ha, 28 DAA", "result": 88, "unit": "%"}, {"measurement": "Control of Avena strigose", "setting": "Avena strigose [2]; 1200 g a.i/ha, 28 DAA", "result": 81, "unit": "%"}, {"measurement": "Control of Avena strigose", "setting": "Avena strigose [2]; 1200 g a.i/ha, 35 DAA", "result": 84, "unit": "%"}, {"measurement": "Control of Avena strigose", "setting": "Avena strigose [2]; 1200 g a.i/ha, 49 DAA", "result": 81, "unit": "%"}, {"measurement": "Control of Avena strigose", "setting": "Avena strigose [2]; 1500 g a.i/ha, 28 DAA", "result": 86, "unit": "%"}, {"measurement": "Control of Avena strigose", "setting": "Avena strigose [2]; 1500 g a.i/ha, 35 DAA", "result": 89, "unit": "%"}, {"measurement": "Control of Avena strigose", "setting": "Avena strigose [2]; 1500 g a.i/ha, 49 DAA", "result": 89, "unit": "%"}, {"measurement": "Control of Avena strigose", "setting": "Avena strigose [2]; 1800 g a.i/ha, 28 DAA", "result": 96, "unit": "%"}, {"measurement": "Control of Avena strigose", "setting": "Avena strigose [2]; 1800 g a.i/ha, 35 DAA", "result": 99, "unit": "%"}, {"measurement": "Control of Avena strigose", "setting": "Avena strigose [2]; 1800 g a.i/ha, 49 DAA", "result": 99, "unit": "%"}, {"measurement": "Control of Avena strigose", "setting": "Avena strigose [2]; 2250 g a.i/ha, 28 DAA", "result": 95, "unit": "%"}, {"measurement": "Control of Avena strigose", "setting": "Avena strigose [2]; 2250 g a.i/ha, 35 DAA", "result": 100, "unit": "%"}, {"measurement": "Control of Avena strigose", "setting": "Avena strigose [2]; 2250 g a.i/ha, 49 DAA", "result": 100, "unit": "%"}, {"measurement": "Control of Avena strigose", "setting": "Avena strigose [2]; 2500 g a.i/ha, 28 DAA", "result": 98, "unit": "%"}, {"measurement": "Control of Avena strigose", "setting": "Avena strigose [2]; 2500 g a.i/ha, 35 DAA", "result": 100, "unit": "%"}, {"measurement": "Control of Avena strigose", "setting": "Avena strigose [2]; 2500 g a.i/ha, 49 DAA", "result": 100, "unit": "%"}]}
